# Assay: Solubility of curcumin in water (amount dissolved, UV/Vis measurement)
# Type: physicochemical
# Settings: visual yellow colouring of supernatant
# Experimental: Curcumin was first incorporated into eggshell flour. Two different methods were used for this purpose. […] Ethanol was evaporated without stirring (HP). […] Ethanol was evaporated with stirring (R). For comparison, curcumin was mixed with eggshell meal (physical mixture=PM) and added to water as a pure substance (bulk). From all samples, the amount of dissolved curcumin was measured. […] The dissolved amount of curcumin was determined at different time points by UV/Vis measurement. […] For method 2, the solubility was approximately 50 times higher.
# The physical mixture contained similar amounts.
structure (smiles),measurement,value
"COc1cc(/C=C/C(=O)CC(=O)/C=C/c2ccc(O)c(OC)c2)ccc1O [pure substance, Curcumin]",dissolution of curcumin in the water phase (discolouration of aqueous supernatant),no dissolution of curcumin occurred

# — US20250262161A1, “COMPOSITION, METHOD FOR ITS PREPARATION AND ITS USE FOR INCREASING THE SOLUBILITY OF ACTIVE SUBSTANCES” (Philipps-Universität Marburg, priority 2021, published 2025)
